Test results: BigSolDB 2.1

O=P(Oc1ccccc1)(Oc1ccccc1)N1CCN(P(=O)(Oc2ccccc2)Oc2ccccc2)CC1
solubility (mole fraction)
Conditions	in THF	in acetone	in benzene	in chloroform	in dichloromethane	in ethanol	in ethyl acetate	in methanol	in toluene
288.15 K	–	–	–	–	0.00585	–	–	–	–
293.15 K	0.00109	0.000424	0.00268	0.0132	0.00725	0.000495	0.000826	3.28e-05	0.000506
298.15 K	0.00143	0.000489	0.00319	0.0146	0.00878	0.000613	0.00103	5.77e-05	0.000616
303.15 K	0.00183	0.000559	0.00385	0.0162	0.0106	0.000746	0.00122	9.84e-05	0.000782
308.15 K	0.00236	0.000631	0.00458	0.0183	0.013	0.000946	0.00158	0.000156	0.000986
313.15 K	0.00301	0.000717	0.00549	0.0202	–	0.00113	0.00194	0.000251	0.00124
318.15 K	0.00375	0.000795	0.00632	0.0223	–	0.00134	0.00242	0.000415	0.00148
323.15 K	0.00493	0.000901	0.00724	0.0245	–	0.00158	0.00301	0.000656	0.00178
328.15 K	0.00605	–	0.00834	–	–	0.00186	0.0036	–	0.00213
333.15 K	0.00766	–	0.00972	–	–	0.00221	0.00437	–	0.00251
338.15 K	–	–	0.0112	–	–	0.00269	0.00521	–	0.00313
343.15 K	–	–	0.0129	–	–	0.0032	0.00614	–	0.00371
